{"source": "patent US5861475A", "about": "“Compositions and methods for the inhibition of phagocytes” (Research Corporation Technologies, Inc., priority 1996, dated 1999)", "key": {"PMN [1]": {"test_system": "PMN", "test": "PMN viability by LDH release", "protocol": "PMN viability after exposure to NIP (seq id no:1) or control peptide for varying amounts of time was assessed by measuring LDH release using a commercially available kit (Sigma)."}, "PMN [2]": {"test_system": "PMN", "test": "PMN cytosolic calcium concentration (Indo-loaded PMN)", "type": "cell-based, human"}, "[3]": {"test_system": "polymorphonuclear neutrophils (PMN)", "type": "cell-based", "conditions": "10 nM human recombinant C5a; cells concomitantly exposed to peptide and agonist; read-out: IC50 for C5a-induced chemotaxis", "protocol": "Whole blood was obtained from a normal human volunteer population and PMN were isolated by ficoll-hypaque gradient centrifugation followed dextran sedimentation, as described by Cooper et al., (1991).\nThe degree of inhibition of PMN chemotaxis by natural purified inhibitor or synthetic peptides was determined as described by Cooper et al. (1991) using 100 nM formyl-methionyl-leucyl-phenylalanine (fMLP), 10 nM human recombinant C5a or 10 nM leukotriene B4 and multiwell chemotaxis chambers (Neuroprobe Inc., Bethesda, Md.) employing nitrocellulose membranes. Isoelectric focused fractions or HPLC elution fractions were diluted 1:1000 in a final concentration of the above agonists. Controls included buffer alone or C5a diluted in buffer alone.\n22 μl of samples were placed in bottom wells of the chemotaxis chamber, a nitrocellulose membrane with 3 μm pores was overlaid as was a rubber gasket. […] Chemotaxis was assessed by comparing the maximal distance migrated to agonist alone or in the presence of an irrelevant peptide (μm minus migration to buffer alone) and comparing to the distance migrated to agonist plus elution fractions or synthetic peptides. The percentage of total cells migrating 10 μm increments from 0 to 120 μm was also determined by image analysis (Olympus Instruments) and treatment groups were compared to controls. […]"}}, "note": "Where no end group is shown, it is not given here."}
{"compound": "SNRGFAYFDEG [Control peptide, Ser-Asn-Arg-Gly-Phe-Ala-Tyr-Phe-Asp-Glu-Gly, reference compound]", "values": [{"measurement": "[LDH] of supernatant", "setting": "PMN [1]; 5 μM, 60 min exposure", "result": "39.2 ± 6.5"}]}
{"compound": "Triton [reference compound]", "values": [{"measurement": "[LDH] of supernatant", "setting": "PMN [1]; 0.1%, 5 min exposure", "result": "252 ± 6.5"}]}
{"compound": "pertussis toxin", "values": [{"measurement": "ionomycin-induced rise in cytosolic calcium", "setting": "PMN [2]; pertussis toxin pretreatment", "result": "no effect"}, {"measurement": "rise in cytosolic calcium concentration induced by 1 μM FMLP", "setting": "PMN [2]; pertussis toxin pretreatment", "result": "Attenuation"}]}
{"compound": "COc1cc(N(CC(=O)OCOC(C)=O)CC(=O)OCOC(C)=O)c2nc(COc3cc(C)ccc3N(CC(=O)OCOC(C)=O)CC(=O)OCOC(C)=O)ccc2c1", "note": "[Quin 2 AM]", "values": [{"measurement": "buffering of rises in cytosolic calcium concentrations", "setting": "PMN [2]; 10 μM, after 1 μM fMLP stimulation", "result": "significantly buffered"}]}
{"compound": "REGSYFFGDNA [NIP, Arg-Glu-Gly-Ser-Tyr-Phe-Phe-Gly-Asp-Asn-Ala]", "values": [{"measurement": "IC50", "setting": "[3]", "result": 2, "unit": "µM"}, {"measurement": "[LDH] of supernatant", "setting": "PMN [1]; 5 μM, 5 min exposure", "result": "37.2 ± 6.3"}, {"measurement": "[LDH] of supernatant", "setting": "PMN [1]; 5 μM, 15 min exposure", "result": "40.8 ± 3.7"}, {"measurement": "[LDH] of supernatant", "setting": "PMN [1]; 5 μM, 30 min exposure", "result": "30.2 ± 4.25"}, {"measurement": "[LDH] of supernatant", "setting": "PMN [1]; 5 μM, 60 min exposure", "result": "35 ± 5.5"}, {"measurement": "cellular viability as determined by LDH release", "setting": "PMN [1]; concentrations that inhibited chemotaxis and oxidant production", "result": "did not significantly alter"}]}
{"compound": "EGSYFFGDNA [NIP-Arg, Glu-Gly-Ser-Tyr-Phe-Phe-Gly-Asp-Asn-Ala]", "values": [{"measurement": "IC50", "setting": "[3]", "result": 6, "unit": "µM"}]}
